Reference: patent US6743440B1, “Polycyclic quinone and ionophore composition for the synergistic reduction of methane formation in ruminant animals” (Arkion Life Sciences LLC, priority 1999, dated 2004)
Marks after values point to notes of the source that are not given here.

System: rumen fluid
Test: in vitro batch culture ruminal fermentation
Assay type: cell-based, steer
Conditions: for Hydrogen / Methane / NH3—N / TVFA (total volatile fatty acids) / Total Gas / VFA C2 (acetate) / VFA C3 (propionate) / VFA C4 (butyrate) / VFA C5 (valerate) / VFA Ci4 (isobutyrate) / VFA Ci5 (isovalerate): high sulfur diet (1.09% S), 24 h, MoO4 25 ppm, M 5 ppm, M + AQ 5 + 10 ppm; for decrease of methane production compared to the control diet: dose effect experiment
[1] = AQ 10 ppm, Ionophores 5 ppm, AQ plus Ionophore 10 + 5 ppm
[2] = intermediate and high levels of 9,10 AQ, P<0.05

| SMILES | Hydrogen (AQ 10 ppm) | Methane (AQ 10 ppm) | NH3—N (AQ 10 ppm) | TVFA (total volatile fatty acids) (AQ 10 ppm) | Total Gas (AQ 10 ppm) | VFA C2 (acetate) (AQ 10 ppm) | VFA C3 (propionate) (AQ 10 ppm) | VFA C4 (butyrate) (AQ 10 ppm) | VFA C5 (valerate) (AQ 10 ppm) | VFA Ci4 (isobutyrate) (AQ 10 ppm) | VFA Ci5 (isovalerate) (AQ 10 ppm) | Methane Concentration [1] [Umole/24 hr. fermentation] | further results |
| --- | --- | --- | --- | --- | --- | --- | --- | --- | --- | --- | --- | --- | --- |
| [O]=[Mo](=[O])([O-])[O-] [MoO4] | 4.13^ab μMoles/24 h fermentation | 451^a μMoles/24 h fermentation | 37.9^a mg/dl | 123.9^b mM | 94.1^ab mL/24 h fermentation | 55.2^b moles/100 mol | 24.2^c moles/100 mol | 15.1^c moles/100 mol | 2.7^d moles/100 mol | 1.2^b moles/100 mol | 1.6^b moles/100 mol | – | – |
| CC[C@@]1([C@H]2O[C@H]([C@H]3O[C@@](O)(CO)[C@H](C)C[C@@H]3C)C[C@H]2C)CC[C@H]([C@@]2(C)CC[C@]3(C[C@H](O)[C@@H](C)[C@@H]([C@H](C)[C@H](OC)[C@@H](C)C(=O)[O-])O3)O2)O1.[Na+] [M, monensin sodium] | 4.17^ab μMoles/24 h fermentation | 299^b μMoles/24 h fermentation | 36.0^a mg/dl | 117.5^c mM | 85.2^c mL/24 h fermentation | 52.4^c moles/100 mol | 28.0^b moles/100 mol | 13.6^d moles/100 mol | 3.0^c moles/100 mol | 1.3^ab moles/100 mol | 1.7^b moles/100 mol | 299 | Methane concentration, Percent of Control (AQ 10 ppm, Ionophores 5 ppm, AQ plus Ionophore 10 + 5 ppm, control = 403): 74% |
| O=C1c2ccccc2C(=O)c2ccccc21 [AQ, 9,10-anthraquinone] | 4.27^ab μMoles/24 h fermentation | 265^b μMoles/24 h fermentation | 37.2^a mg/dl | 118.0^c mM | 89.2^cb mL/24 h fermentation | 48.4^d moles/100 mol | 28.1^b moles/100 mol | 17.3^a moles/100 mol | 3.3^b moles/100 mol | 1.2^ab moles/100 mol | 1.7^b moles/100 mol | 265 | Total VFA relative to the control and untreated high sulfur diet (9,10 AQ dose effect experiment): numerically but not statistically decreased; hydrogen concentration (9,10 AQ dose effect experiment): unaffected; decrease of methane production compared to the control diet (10 ppm 9,10 AQ): 21%; decrease of methane production compared to the control diet (25 ppm 9,10 AQ): 41%; activity at 10 ppm (AQ 10 ppm, Ionophores 5 ppm, AQ plus Ionophore 10 + 5 ppm, control = 403, read-out: Methane concentration, Percent of Control): 66%; ammonia-N (highest level of 9,10 AQ, P<0.05): decreased; percentages of C3, C4 and C5 (intermediate and high levels of 9,10 AQ): increased; molar proportion of C2 [2]: decreased; total gas produced [2]: decreased; effect on fermentation end-products compared to the untreated diets (low level of 9,10 AQ (1 ppm)): no effect |
